# In patent US9970037B2, “Methods and materials for making simvastatin and related compounds” (The Regents of the University of California, priority 2006, dated 2018):
# Where “and” joins values, the source holds several entries; their conditions need not be identical. Equal entries are not always repeated.
# T1: LovD (Aspergillus terreus, UniProt Q9Y7D1)
# T1 sequence (Q9Y7D1 1-413): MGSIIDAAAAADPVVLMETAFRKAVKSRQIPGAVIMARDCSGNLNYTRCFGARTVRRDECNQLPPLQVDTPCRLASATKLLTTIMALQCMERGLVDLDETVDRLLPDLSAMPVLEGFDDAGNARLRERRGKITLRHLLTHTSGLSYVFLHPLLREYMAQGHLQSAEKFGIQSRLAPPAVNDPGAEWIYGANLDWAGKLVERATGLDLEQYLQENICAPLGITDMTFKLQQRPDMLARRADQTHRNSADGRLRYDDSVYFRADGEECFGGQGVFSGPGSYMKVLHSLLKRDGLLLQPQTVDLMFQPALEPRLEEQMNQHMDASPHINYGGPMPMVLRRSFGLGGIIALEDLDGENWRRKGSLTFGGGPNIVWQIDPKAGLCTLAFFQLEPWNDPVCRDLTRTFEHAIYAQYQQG
# B1: LovD (Aspergillus terreus) (protein)
# chain: T1 sequence (Q9Y7D1 1-413)
# notes: 6xHis (N); made in house; host or cells: E. coli BL21(DE3)/pAW31 (pET28a)
# Key:
# [1] = system: E. coli BL21(DE3)/pAW31; test: Whole cell biocatalysis with E. coli overexpressing LovD; type: cell-based, Escherichia coli
# Procedure: The BL21(DE3)/pAW31 overexpression strain was grown in a shake flask (200 mL) to an OD600 of 1.0, at which time 1 mM IPTG, 0.8 mM monacolin J and 4 mM of either benzoyl-SNAC or benzoyl-SMTG were added to the culture. Expression of LovD and bioconversion was performed at 18° C. The culture was extracted and analyzed for the formation of 8-benzoyl-monacolin J. When supplemented with benzoyl-SNAC, 84% conversion of monacolin J was detected within 20 hours post-induction. The product was lactonized and purified by a single silica-gel chromatography step. The NMR spectra confirmed the regioselective benzoylation of the C8 hydroxyl group as the diagnostic H8 multiplet is shifted downfield to δ 5.61.
# Fermentation conditions: 500 mL culture with LB media with 30 mg/L kanamycin. At OD600 of 1.0, cells were concentrated to a final OD600 of 5.0 and induced with 1 mM IPTG. Substrates monacolin J and α-dimethylbutyryl-SNAC were added to a final concentration of 1 mM and 4 mM. At different time points, culture samples were collected, centrifuged, filtered and injected on to HPLC (20 μL). Extraction conditions: When maximum conversion was reached, the broth was acidified to pH of 2.0, extracted with ethyl acetate, dried and redissolved in toluene.
# (§1) Whole-cell catalytic synthesis of simvastatin acid from MJ acid and DMB-S-MMP were performed as described (see, e.g., Xie et al., (2007) Appl Environ Microbiol 73: 2054-2060). The E. coli BL21(DE3)/pAW31 and YT2/pAW31 strains were cultured side-by-side for comparison. A single colony of the freshly transformed strains was used to inoculate a 5 mL LB culture supplemented with 35 mg/L kanamycin and grown overnight at 37° C. The next morning, 100 μL of the overnight culture was inoculated into 50 mL cultures containing LB broth, F1 minimal medium and F1 medium supplemented with 0.15 mg/L biotin. Growth rates were monitored by periodically measuring the OD600 reading. When OD600 reached ˜0.5, 100 μM IPTG was added to the culture and expression of LovD was performed at 20° C. for 16 hours. To mimic high density fermentation conditions, the cells were concentrated 10-fold before addition of substrates. Typically, a 14 mL aliquot of the culture was transferred to a 15 mL centrifuge tube and the cells were collected by centrifugation (4° C., 4000 g, 10 minutes). The cell pellet was gently resuspended in 1316 μl of the supernatant, followed by addition of 84 μl of a MJ acid stock solution (250 mM in H2O) (final concentration 15 mM). The concentrated culture was then separated into seven 200 μL samples and 1.2 μL of pure DMB-S-MMP was added to each sample (final concentration ˜25 mM). The culture was then shaken at 300 rpm at room temperature. At each time point, a total extraction was performed by adding 10 μL 20% SDS to lyse the cells, followed by liquid-liquid extraction with 500 μL EA/1% AcOH. The organic phase was removed, evaporated, and redissolved in 50 μL ACN for HPLC analysis. For the BL21(DE3) sample, an additional 1.2 μL aliquot of DMB-S-MMP was added after 12 hours to replenish the hydrolyzed substrates.
# The E. coli BL21(DE3)/pAW31 strain was grown in LB medium at 37° C. to an OD600 of 0.5, at which time 100 μM IPTG was added to the culture and expression was performed at RT for 16 hours. A 10 ml culture was transferred to a 15 mL centrifuge tube. The cells were collected by centrifugation (4000 g, 10 minutes). The cell pellet was resuspended in 957 μl of the supernatant. The pH was adjusted to pH 7.9 with 1.0 N NaOH, followed by addition of 33 μl 450 mM MJ (final concentration 15 mM) and 6 μl pure DMB-S-MMP (final concentration ˜25 mM). The culture was then shaken at 300 rpm at room temperature. At each time point, a 4 μL aliquot was removed from the reaction mixture, quenched in 300 μL ethyl acetate containing 1% TFA.
# [2] = system: YT2/pAW31; test: Whole cell biocatalysis with ΔbioH E. coli overexpressing LovD; type: cell-based, Escherichia coli; settings: 15 mM MJ acid, 25 mM DMB-S-MMP, less than 12 hours
# Procedure: as §1, with “The culture was then shaken at 300 rpm at room temperature. At each time point, a total extraction was performed by adding 10 μL 20% SDS to lyse the cells, followed by liquid-liquid extraction with 500 μL EA/1% AcOH. The organic phase was removed, evaporated, and redissolved in 50 μL ACN for HPLC analysis. For the BL21(DE3) sample, an additional 1.2 μL aliquot of DMB-S-MMP was added after 12 hours to replenish the hydrolyzed substrates.” left out
# [3] = system: E. coli; test: Whole-cell based hydrolysis / stability of thioester in E. coli cultures; design: species or system Escherichia coli; settings: BL21(DE3)/pAW31 culture, 18° C., 24 hours
# Procedure: The selected 57 mutants from the Keio collection together with BW25113, BL21(DE3) and BL21(DE3)/pAW31 were grown to saturation in a 96-well deep well plate in 1 mL LB media at 37° C. Neat DMB-S-MMP (5 μL) was added to each culture with a final concentration of 20 mM. […] The organic phase was dried, redissolved in 20 μL acetonitrile (CH3CN), and 1 μL was spotted on a TLC plate (silica gel 60 F254). The TLC plates were developed with 20% EA in hexane and visualized with iodine.
# Analysis of the compounds were also performed with HPLC using an analytical C18 column (Alltech Apollo 5 u, 150 mm×4.6 mm); linear gradient: 60% CH3CN in water (0.1% trifluoroacetic acid [TFA]) to 95% CH3CN in water (0.1% TFA) over 5 min, 95% CH3CN in water (0.1% TFA) for 10 minutes, with a flow rate of 1 mL/min. HPLC retention times (tR) were as follows: MJ lactone form: 3.40 min; DMB-S-MPA: 3.82 min; DMB-S-MMP: 6.80 min; simvastatin lactone form: 8.45 min. Both MJ and simvastatin acids were lactonized before HPLC analysis.
# The mutants, wild type […] and BL21(DE3) were grown to saturation in LB broth in a 96-well plate. […] The cultures were acidified, extracted with ethyl acetate, and the organic phases were analyzed by thin layer chromatography (TLC) using a mobile phase (20% ethyl acetate in hexane) that enabled separation of DMB-S-MMP and DMB-S-MPA (FIG. 14A). […]
# [4] = biological target: T1, LovD; settings: label = product formed
# Procedure: Assay conditions: 1 mM monacolin J, 10 mM acyl-SNAC, 100 uM LovD, 50 mM HEPES, pH 7.9, 25 degrees C., 6 hrs.
# [5] = substrate: CC[C@H](C)C(=O)O[C@H]1C[C@@H](C)C=C2C=C[C@H](C)[C@H](CC[C@@H]3C[C@@H](O)CC(=O)O3)[C@H]21; test: LovD catalyzed hydrolysis of lovastatin / simvastatin to monacolin J, HPLC; type: biochemical, Aspergillus terreus; settings: other: statin as the only substrate; pH 7.9; 25.0 °C
# Procedure: FIG. 5. […] (B) Conversion as a function of time for (⋄) butyryl-CoA (♦) butyryl-SNAC, (▪) butyryl-SMTG. The apparent kcat values reported throughout the text are initial turnover rates in the linear range. (C) Michaelis-Menten plot of LovD catalyzed hydrolysis of lovastatin to monacolin J. The reaction progress is monitored by HPLC. kcat: 0.21±0.01 min^−1; Km: 0.56±0.05 mM.
# As shown in FIG. 5A (trace a), 87% conversion of monacolin J to 4 was observed after 10 hours using butyryl-CoA as an acyl donor. […] The observed 87% conversion is likely approaching equilibrium as evident in FIG. 5B. To examine the biochemical nature of the equilibrium conversion, we assayed whether LovD also catalyzes the reverse, hydrolysis reaction.
# [6] = substrate: CCC(C)(C)C(=O)SCCC(=O)OC; test: LovD transacylation assay: acyl transfer from acyl thioester to C8 hydroxyl of monacolin J, HPLC; type: biochemical, Aspergillus terreus; settings: other: monacolin J fixed at 2 mM; DMB-S-MMP 0.2-10 mM, 5% DMSO; pH 7.9
# Procedure: We first examined if an acyl-CoA can be used as substrate for the transacylation reaction. The uninterrupted gene of LovD was amplified from A. terreus genomic DNA using splice by overlap extension PCR and was inserted into the pET28a expression vector. Overexpression of soluble, N-terminal 6×His fusion LovD was performed in E. coli strain BL21(DE3)/pAW31. LovD was purified using Nickel-NTA affinity column to homogeneity (final yield˜40 mg/L). The substrate monacolin J (1 mM) was prepared through the LiOH hydrolysis of lovastatin and was added to a reaction mixture containing pure LovD (10 μM) and butyryl-CoA (4 mM), which is a commercially available acyl-CoA that best mimics the natural α-methylbutyrate side chain. The reaction mixture was incubated at room temperature, extracted with ethyl acetate and analyzed by HPLC and LC-MS (FIG. 5).
# We assayed the tolerance of LovD towards different acyl substituents by performing the transacylation assay with various commercially available acyl-CoAs (Table 1A). […]
# Expression and purification of LovD has been previously described in detail (see, e.g., Xie et al., 2006, Chem Biol 13: 1161-1169). […] The initial velocities (ki) of the acyl substrates were determined with 10 μM LovD, 1 mM monacolin J and 4 mM of the thioester. […] The percent conversion of monacolin J to simvastatin was determined by HPLC analysis (C18). […]
molecule,measurement,setting,value
"CCC(C)(C)C(=O)SCCC(=O)OC [DMB-S-MMP, α-dimethylbutyryl-S-methyl-mercaptopropionate]","conversion of monacolin J to simvastatin, whole cell","[1]; 15 mM monacolin J, 25 mM DMB-S-MMP, cells concentrated 10×, room temperature, 24 hours",99% and > 99%
same,"conversion of MJ acid to simvastatin acid, whole cell",[2],> 99%
COC(=O)CSC(=O)c1ccccc1 [benzoyl-SMTG],stability of acyl donor in E. coli culture,[3],rapidly degraded
same,conversion of monacolin J (benzoylation) in vivo,"[1]; 0.8 mM monacolin J, 4 mM acyl donor, 18° C., within 20 hours post-induction",40%
CCC(C)(C)C(=O)OC1CC(O)C=C2C=CC(C)C(CCC(O)CC(O)CC(=O)O)C21 (centres unmarked) [huvastatin],apparent turnover rate for synthesis from tetra-ol 7 using the corresponding acyl-thioester,[4],0.03 min⁻¹
B1,Km,[5],560 ± 50 µM
same,kcat,[5],0.0035 ± 0.00017 s⁻¹
same,Km,[6],670 ± 40 µM
